The assay addresses T1, Muscarinic acetylcholine receptor M4 (Homo sapiens, UniProt P08173).
T1 sequence (P08173 whole entry): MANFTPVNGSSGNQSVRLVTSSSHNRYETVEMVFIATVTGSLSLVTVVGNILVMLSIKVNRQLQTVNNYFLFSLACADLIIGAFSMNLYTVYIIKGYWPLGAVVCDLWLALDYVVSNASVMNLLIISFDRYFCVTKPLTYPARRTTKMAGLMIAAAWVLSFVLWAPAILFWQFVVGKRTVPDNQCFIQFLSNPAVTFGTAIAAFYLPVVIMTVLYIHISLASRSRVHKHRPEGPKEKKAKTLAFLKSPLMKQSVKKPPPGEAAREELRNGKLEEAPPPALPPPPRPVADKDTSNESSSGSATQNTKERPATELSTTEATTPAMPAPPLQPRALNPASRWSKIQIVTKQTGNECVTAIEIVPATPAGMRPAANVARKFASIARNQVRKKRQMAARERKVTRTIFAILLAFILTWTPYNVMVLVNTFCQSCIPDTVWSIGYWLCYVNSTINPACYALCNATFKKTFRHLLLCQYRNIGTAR

Molecules are shown by their SMILES. “And” between values parts separate entries of the source, which are not always exact repeats. Equal entries are not always repeated.

The Ki is the dissociation constant of the complex between target and ligand, obtained from inhibition or displacement. Read a low Ki as tighter binding. For the compound `COc1ccccc1CNCCCCCCNCCCCCCCCNCCCCCCNCc1ccccc1OC` [METHOCTRAMINE], the Ki was 66.1 nM and 72.4 nM. The value for `O[Si](CCCN1CCCCC1)(c1ccccc1)C1CCCCC1` (configuration not stated) [HHSiD] was 4.16 nM and 16.6 nM.

These data come from BindingDB's records for doi:10.1111/j.1600-0773.1998.tb01469.x (Case Western Reserve University, 1998).
